# Source: PMC5318439, “The Novel Toll-Like Receptor 2 Agonist SUP3 Enhances Antigen Presentation and T Cell Activation by Dendritic Cells” (Frontiers in Immunology, 2017)
# Where a SMILES comes first, the peptide text is derived from it. The star is where a group is joined. X1 = CCCCCCCCCCCCCCNC(=O)OC[C@H](C*)OC(=O)NCCCCCCCCCCCCCC; Palmitoyl = CCCCCCCCCCCCCCCC(=O)*
# Key:
# [1] = tested on: Tlr2^−/− RAW 264.7 cells; assay: TNFα production by Tlr2−/− RAW 264.7 cells (TLR2 specificity); format: cell-based; conditions: 500 nM, 8 h
# Experimental: Tlr2^−/− RAW 264.7 cells were generated by lentiviral CRISPR-Cas9 system as described previously ([36]). Briefly, target guide sequences (5′-[…]-3′, 3′-[…]-5′) designed by Genome Engineering 3.0 were ligated into lentiviral vector lentiCRISPR (Addgene 52961). Then lentiCRISPR as well as packaging plasmids pMD2.G (Addgene 12259) and psPax2 (Addgene 12260) were co-transfected into 293FT cells by CaCl2 (12.5 mM) for virus packaging. Fresh cell culture medium was changed 12 h post-transfection. After another 72 h, 293FT cell culture supernatant containing virus was harvested, filtered, and concentrated. Then, RAW 264.7 cells were infected by the virus (~5 × 10^5 TU/mL) with the presence of 8 µg/mL polybrene (Sigma H9268). […]
# Splenic DCs (5 × 10^5 cells/mL) were stimulated by Pam3 (200 nM), SUP3 (200 nM), or CpG ODN 1668 (20 nM; Adipogen IAX-200-001) in the GM-CSF (20 ng/mL) supplemented medium for indicated periods. […] Cytokines (IL-6, eBioscience 88-7064; TNFα, eBioscience 88-7324; IL-12p40, BioLegend 431604), chemokine (MIP1α, R&D Systems DY450-05), and total IgM (eBioscience, 88-50470) were quantified by ELISA kits following the instructions of manufacturers.
# Figure 1 Specificity and activity of novel TLR2 agonist SUP3. […] The production of cytokines IL-6 and TNFα in culture supernatant was determined by ELISA. *p < 0.05, ****p < 0.0001, “n.s.” indicates statistically non-significant.
# [2] = tested on: CD8^+ cDCs; assay: Antigen cross-presentation by splenic CD8+ cDCs to OT-I CD8+ T cells in vitro; format: cell-based, mice; conditions: 200 nM; SUP3 versus Pam3
# Experimental: Antigen presentation assays were performed as previously described ([38]). Briefly, ovalbumin (OVA) (10 µg/mL; Sigma A7641) pulsed cDCs were stimulated with or without TLR agonists for 4 h. OT-I CD8^+ T cells and OT-II CD4^+ T cells were purified and then labeled by carboxyfluorescein diacetate succinimidyl ester (CFSE) (1 µM; Molecular Probes C34554). CD8^+ cDCs were cocultured with OT-I CD8^+ T cells for 60 h, whereas CD11b^+ cDCs were cocultured with OT-II CD4^+ T cells for 96 h, both in the presence of granulocyte-macrophage colony-stimulating factor (GM-CSF) (20 ng/mL; Peprotech 315-03). Proliferated OT-I or OT-II T cells were defined as diluted CFSE signal analyzed by flow cytometry. The numbers of T cells were counted by AccuCheck counting beads (Molecular Probes PCB100). […] Cells were washed twice with cold medium and analyzed by flow cytometry.
# Figure 3 SUP3 facilitated cross-presentation of ovalbumin (OVA) antigen by CD8^+ conventional dendritic cells (cDCs) in vitro. […] Cells were washed and cocultured with carboxyfluorescein diacetate succinimidyl ester (CFSE)-labeled OT-I CD8^+ T cells for 60 h and analyzed by flow cytometry. (A) The dividing OT-I cells were measured by reduced level of CFSE-labeling. […] (B) Absolute numbers of proliferated OT-I T cells were calculated. (C) Interferon-γ from the supernatant of coculture was determined by ELISA 24 h later. […]
Molecule,TNFα secretion by Tlr2−/− RAW cells [1],enhancement of cross-presentation by CD8+ cDCs in vitro [2]
Pam3CSK4 [reference compound],no secretion of TNFα,comparable
"CCCCCCCCCCCCCCCC(=O)N[C@@H](CSC[C@@H](COC(=O)NCCCCCCCCCCCCCC)OC(=O)NCCCCCCCCCCCCCC)C(=O)NCC(=O)N[C@@H](CCCCN)C(=O)N[C@@H](CCCCN)C(=O)N[C@@H](CCCCN)C(=O)O [SUP3, (2S,5S,8S,14R,18R)-2,5,8-tris(4-aminobutyl)-4,7,10,13,21-pentaoxo-14-palmitamido-18-((tetradecylcarbamoyl)oxy)-20-oxa-16-thia-3,6,9,12,22-pentaazahexatriacontan-1-oic acid] (Palmitoyl-C(X1)GKKK-OH)",no secretion of TNFα,comparable
